Data published in US20260295053A1, “COMPOUNDS FOR DEGRADATION AND INHIBITION OF KRAS (G12D) PROTEIN” (Shenzhen Ionova Life Science Co., Ltd., priority 2023, published 2026).

Columns and labels:
AsPC-1 cells = test: AsPC-1 cell proliferation assay (CellTiter Glo); type: cell-based; settings: 6 days
In short: (§1)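 Read-outs were KRAS G12D immunofluorescence against β-actin after 24 h (DC50) and CellTiter Glo luminescence after 6 days (IC50). Compounds were titrated 1:3 from […] to 1.5 nM final on AsPC-1 cells at 37 °C, 5% CO2.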

KRAS (G12D) = biological target: T1, KRAS (G12D) (Homo sapiens, UniProt P01116, G12D); test: KRAS (G12D) cellular degradation assay in AsPC-1 cells; type: cell-based; settings: 24 hours, antibody fluorescence (Odyssey CLX), DC50 half-maximal degradation concentration
T1 construct: in-cell western with KRAS G12D antibody after 24 h
T1 sequence (P01116 1-188 isoform P01116-2 G12D): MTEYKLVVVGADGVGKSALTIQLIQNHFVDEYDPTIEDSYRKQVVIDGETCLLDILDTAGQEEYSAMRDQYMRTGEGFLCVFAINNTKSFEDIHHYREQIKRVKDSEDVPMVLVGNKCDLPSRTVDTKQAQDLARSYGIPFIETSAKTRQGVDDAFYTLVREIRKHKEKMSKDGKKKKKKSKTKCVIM
In short: as §1

Compound	IC50 (AsPC-1 cells; Homo sapiens, ASPC1, 144 h) [nM]	DC50 (KRAS (G12D)) [nM]	IC50 (AsPC-1 cells) [nM]
CCn1nccc1-c1ccc([C@H](CO)NC(=O)[C@@H]2C[C@@H](O)CN2C(=O)[C@H](C(C)C)n2cc(-c3ccc(COc4c(-c5c(C)c(F)cc6[nH]ncc56)c(C5CC5)cc5c(N6C[C@@H]7C[C@H]6CN7)nc(OC(COC)C(F)F)nc45)cc3)nn2)cc1 (stereo partly drawn) [Example 83, (2S,4R)-1-((2S)-2-(4-(4-(((4-((1S,4S)-2,5-diazabicyclo[2.2.1]heptan-2-yl)-6-cyclopropyl-2-((1,1-difluoro-3-methoxypropan-2-yl)oxy)-7-(6-fluoro-5-methyl-1H-indazol-4-yl)quinazolin-8-yl)oxy)methyl)phenyl)-1H-1,2,3-triazol-1-yl)-3-methylbutanoyl)-N—((R)-1-(4-(1-ethyl-1H-pyrazol-5-yl)phenyl)-2-hydroxyethyl)-4-hydroxypyrrolidine-2-carboxamide]	< 10	< 10	–
CCn1nccc1-c1ccc([C@H](CO)NC(=O)[C@@H]2C[C@@H](O)CN2C(=O)[C@H](C(C)C)n2cc(-c3ccc(COc4c(-c5c(C)c(F)cc6[nH]ncc56)c(C5CC5)cc5c(N6C[C@@H]7C[C@H]6CN7)nc(OC6CC7(COC7)C6)nc45)cc3)nn2)cc1 [Example 69, (2S,4R)-1-((2S)-2-(4-(4-(((2-((2-oxaspiro[3.3]heptan-6-yl)oxy)-4-((1S,4S)-2,5-diazabicyclo[2.2.1]heptan-2-yl)-6-cyclopropyl-7-(6-fluoro-5-methyl-1H-indazol-4-yl)quinazolin-8-yl)oxy)methyl)phenyl)-1H-1,2,3-triazol-1-yl)-3-methylbutanoyl)-N—((R)-1-(4-(1-ethyl-1H-pyrazol-5-yl)phenyl)-2-hydroxyethyl)-4-hydroxypyrrolidine-2-carboxamide]	< 10	< 10	–
CCn1nccc1-c1ccc([C@H](CO)NC(=O)[C@@H]2C[C@@H](O)CN2C(=O)[C@H](C(C)C)n2cc(-c3ccc(COc4c(-c5c(C)c(F)cc6[nH]ncc56)c(C5CC5)cc5c(N6C7CNCC6COC7)nc(OC[C@H](C)OC)nc45)cc3)nn2)cc1 [Example 61, (2S,4R)-1-((2S)-2-(4-(4-(((4-(3-oxa-7,9-diazabicyclo[3.3.1]nonan-9-yl)-6-cyclopropyl-7-(6-fluoro-5-methyl-1H-indazol-4-yl)-2-((S)-2-methoxypropoxy)quinazolin-8-yl)oxy)methyl)phenyl)-1H-1,2,3-triazol-1-yl)-3-methylbutanoyl)-N—((R)-1-(4-(1-ethyl-1H-pyrazol-5-yl)phenyl)-2-hydroxyethyl)-4-hydroxypyrrolidine-2-carboxamide]	10 to 100	10 to 100	–
Cc1ncsc1-c1ccc([C@@H](NC(=O)[C@@H]2C[C@@H](O)CN2C(=O)[C@H](C(C)C)n2cc(-c3ccc(COc4c(-c5c(C)c(F)cc6[nH]ncc56)c(C5CC5)cc5c(N6C[C@@H]7C[C@H]6CN7)nc(OC6CCOCC6)nc45)cc3)nn2)[C@H](C)O)cc1 [Example 72, (2S,4R)-1-((2S)-2-(4-(4-(((4-((1S,4S)-2,5-diazabicyclo[2.2.1]heptan-2-yl)-6-cyclopropyl-7-(6-fluoro-5-methyl-1H-indazol-4-yl)-2-((tetrahydro-2H-pyran-4-yl)oxy)quinazolin-8-yl)oxy)methyl)phenyl)-1H-1,2,3-triazol-1-yl)-3-methylbutanoyl)-4-hydroxy-N-((1R,2S)-2-hydroxy-1-(4-(4-methylthiazol-5-yl)phenyl)propyl)pyrrolidine-2-carboxamide]	< 10	< 10	–
CCn1nccc1-c1ccc([C@H](CO)NC(=O)[C@@H]2C[C@@H](O)CN2C(=O)[C@H](C(C)C)n2cc(-c3ccc(COc4c(-c5c(C)c(F)c(F)c6[nH]ncc56)c(C5CC5)cc5c(N6C[C@@H]7C[C@H]6CN7)nc(O[C@H]6CC[C@H](OC)CC6)nc45)cc3)nn2)cc1 [Example 99, (2S,4R)-1-((2S)-2-(4-(4-(((4-((1S,4S)-2,5-diazabicyclo[2.2.1]heptan-2-yl)-6-cyclopropyl-7-(6,7-difluoro-5-methyl-1H-indazol-4-yl)-2-(((1r,4S)-4-methoxycyclohexyl)oxy)quinazolin-8-yl)oxy)methyl)phenyl)-1H-1,2,3-triazol-1-yl)-3-methylbutanoyl)-N—((R)-1-(4-(1-ethyl-1H-pyrazol-5-yl)phenyl)-2-hydroxyethyl)-4-hydroxypyrrolidine-2-carboxamide]	< 10	< 10	–
CCn1nccc1-c1ccc([C@@H](NC(=O)[C@@H]2C[C@@H](O)CN2C(=O)[C@H](C(C)C)n2cc(-c3ccc(COc4c(-c5c(C)c(F)cc6[nH]ncc56)c(C5CC5)cc5c(N6C[C@@H]7C[C@H]6CN7)nc(O[C@H]6C[C@H](OC)C6)nc45)cc3)nn2)[C@H](C)O)cn1 [Example 193, (2S,4R)-1-((2S)-2-(4-(4-(((4-((1S,4S)-2,5-diazabicyclo[2.2.1]heptan-2-yl)-6-cyclopropyl-7-(6-fluoro-5-methyl-1H-indazol-4-yl)-2-((1r,3S)-3-methoxycyclobutoxy)quinazolin-8-yl)oxy)methyl)phenyl)-1H-1,2,3-triazol-1-yl)-3-methylbutanoyl)-N-((1R,2S)-1-(6-(1-ethyl-1H-pyrazol-5-yl)pyridin-3-yl)-2-hydroxypropyl)-4-hydroxypyrrolidine-2-carboxamide]	< 10	10 to 100	–
CO[C@@H](C)COc1nc(N(C)[C@H]2CCNC2)c2cc(C3CC3)c(-c3c(C)c(F)cc4[nH]ncc34)c(OCc3ccc(-c4cn([C@H](C(=O)N5C[C@H](O)C[C@H]5C(=O)N[C@H](c5ccc(-c6scnc6C)cc5)[C@H](C)O)C(C)C)nn4)cc3)c2n1 [Example 143, (2S,4R)-1-((2S)-2-(4-(4-(((6-cyclopropyl-7-(6-fluoro-5-methyl-1H-indazol-4-yl)-2-((S)-2-methoxypropoxy)-4-(methyl((S)-pyrrolidin-3-yl)amino)quinazolin-8-yl)oxy)methyl)phenyl)-1H-1,2,3-triazol-1-yl)-3-methylbutanoyl)-4-hydroxy-N-((1R,2S)-2-hydroxy-1-(4-(4-methylthiazol-5-yl)phenyl)propyl)pyrrolidine-2-carboxamide]	–	< 10	< 10

Second part, the compound after the results:

IC50 (AsPC-1 cells; Homo sapiens, ASPC1, 144 h) [nM]	DC50 (KRAS (G12D)) [nM]	IC50 (AsPC-1 cells) [nM]	Compound
< 10	< 10	–	Cc1ncsc1-c1ccc([C@H](CO)NC(=O)[C@@H]2C[C@@H](O)CN2C(=O)[C@H](C(C)C)n2cc(-c3ccc(COc4c(-c5c(C)c(F)cc6[nH]ncc56)c(C5CC5)cc5c(N6C[C@@H]7C[C@H]6CN7)nc(OC6CCC7(CC6)COC7)nc45)cc3)nn2)cc1 [Example 63, (2S,4R)-1-((2S)-2-(4-(4-(((2-((2-oxaspiro[3.5]nonan-7-yl)oxy)-4-((1S,4S)-2,5-diazabicyclo[2.2.1]heptan-2-yl)-6-cyclopropyl-7-(6-fluoro-5-methyl-1H-indazol-4-yl)quinazolin-8-yl)oxy)methyl)phenyl)-1H-1,2,3-triazol-1-yl)-3-methylbutanoyl)-4-hydroxy-N—((R)-2-hydroxy-1-(4-(4-methylthiazol-5-yl)phenyl)ethyl)pyrrolidine-2-carboxamide]
< 10	< 10	–	Cc1ncsc1C#C[C@H](CO)NC(=O)[C@@H]1C[C@@H](O)CN1C(=O)[C@H](C(C)C)n1cc(-c2ccc(COc3c(-c4c(C)c(F)cc5[nH]ncc45)c(C4CC4)cc4c(N5C[C@@H]6C[C@H]5CN6)nc(OC5CCOCC5)nc34)cc2)nn1 [Example 59, (2S,4R)-1-((2S)-2-(4-(4-(((4-((1S,4S)-2,5-diazabicyclo[2.2.1]heptan-2-yl)-6-cyclopropyl-7-(6-fluoro-5-methyl-1H-indazol-4-yl)-2-((tetrahydro-2H-pyran-4-yl)oxy)quinazolin-8-yl)oxy)methyl)phenyl)-1H-1,2,3-triazol-1-yl)-3-methylbutanoyl)-4-hydroxy-N—((R)-1-hydroxy-4-(4-methylthiazol-5-yl)but-3-yn-2-yl)pyrrolidine-2-carboxamide]
< 10	< 10	–	CO[C@@H](C)COc1nc(N2C[C@@H]3C[C@H]2CN3)c2cc(C3CC3)c(-c3c(C)c(F)c(F)c4[nH]ncc34)c(OCc3ccc(-c4cn([C@H](C(=O)N5C[C@H](O)C[C@H]5C(=O)N[C@H](c5ccc(-c6scnc6C)cc5)[C@H](C)O)C(C)C)nn4)cc3)c2n1 [Example 90, (2S,4R)-1-((2S)-2-(4-(4-(((4-((1S,4S)-2,5-diazabicyclo[2.2.1]heptan-2-yl)-6-cyclopropyl-7-(6,7-difluoro-5-methyl-1H-indazol-4-yl)-2-((S)-2-methoxypropoxy)quinazolin-8-yl)oxy)methyl)phenyl)-1H-1,2,3-triazol-1-yl)-3-methylbutanoyl)-4-hydroxy-N-((1R,2S)-2-hydroxy-1-(4-(4-methylthiazol-5-yl)phenyl)propyl)pyrrolidine-2-carboxamide]
< 10	< 10	–	CCn1nccc1-c1ccc([C@@H](NC(=O)[C@@H]2C[C@@H](O)CN2C(=O)[C@H](C(C)C)n2cc(-c3ccc(COc4c(-c5c(C)c(F)cc6[nH]ncc56)c(C5CC5)cc5c(N6C[C@@H]7C[C@H]6CN7)nc(OC[C@H](C)OC)nc45)cc3)nn2)[C@@H](O)C(C)C)cc1 [Example 95, (2S,4R)-1-((2S)-2-(4-(4-(((4-((1S,4S)-2,5-diazabicyclo[2.2.1]heptan-2-yl)-6-cyclopropyl-7-(6-fluoro-5-methyl-1H-indazol-4-yl)-2-((S)-2-methoxypropoxy)quinazolin-8-yl)oxy)methyl)phenyl)-1H-1,2,3-triazol-1-yl)-3-methylbutanoyl)-N-((1R,2S)-1-(4-(1-ethyl-1H-pyrazol-5-yl)phenyl)-2-hydroxy-3-methylbutyl)-4-hydroxypyrrolidine-2-carboxamide]
